According to ChEMBL document CHEMBL2034887, “Substituted phenoxypropyl-(R)-2-methylpyrrolidine aminomethyl ketones as histamine-3 receptor inverse agonists” (Bioorg Med Chem Lett, 2012):
Blank lines part the entries; values can stand above or below the compound they belong to. Activity calls are given as the source filed them. The calls are words filed in the database; no cut-off is given here.

Key:
[1] = target: T1, Histamine H3 receptor (Homo sapiens, UniProt Q9Y5N1); experiment: Displacement of [3H]NAMH from human histamine H3 receptor expressed in CHO cells; type: cell-based
[2] = target: Histamine H3 receptor (Rattus norvegicus, UniProt Q9QYN8); experiment: Displacement of [3H]NAMH from rat histamine H3 receptor expressed in CHO cells; type: cell-based
[3] = Ratio of drug level in brain to plasma in rat at 5 mg/kg, po measured after 6 hrs; type: ADME, organism-based; set-up: dose 5 mg/kg, route oral; conditions: read-out: BPR
[4] = tested on: Rattus norvegicus; experiment: Inhibition of RAMH-induced dipsogenia in rat at 1 mg/kg, ip; type: functional, organism-based; set-up: dose 1 mg/kg
[5] = target: T2, Cytochrome P450 1A2 (Homo sapiens, UniProt P05177); experiment: Inhibition of CYP1A2; type: ADME
T2 sequence (P05177 whole entry): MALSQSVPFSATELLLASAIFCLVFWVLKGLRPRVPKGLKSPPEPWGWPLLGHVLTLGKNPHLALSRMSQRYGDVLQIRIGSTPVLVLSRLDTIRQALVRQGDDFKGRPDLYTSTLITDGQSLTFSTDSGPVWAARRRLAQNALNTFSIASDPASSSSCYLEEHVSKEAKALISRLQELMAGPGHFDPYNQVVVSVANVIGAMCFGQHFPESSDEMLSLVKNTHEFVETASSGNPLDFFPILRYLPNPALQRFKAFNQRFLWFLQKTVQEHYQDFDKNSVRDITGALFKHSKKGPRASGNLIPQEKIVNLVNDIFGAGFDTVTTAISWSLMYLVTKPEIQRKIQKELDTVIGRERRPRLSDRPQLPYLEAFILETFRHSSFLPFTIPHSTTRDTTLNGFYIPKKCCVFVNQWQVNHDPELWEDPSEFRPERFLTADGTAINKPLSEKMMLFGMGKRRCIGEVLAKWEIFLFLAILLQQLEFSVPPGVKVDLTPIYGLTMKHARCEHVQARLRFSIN

[6] = target: Cytochrome P450 2C9 (Homo sapiens, UniProt P11712); experiment: Inhibition of CYP2C9; type: ADME
[7] = target: Cytochrome P450 2C19 (Homo sapiens, UniProt P33261); experiment: Inhibition of CYP2C19; type: ADME
[8] = target: Cytochrome P450 2D6 (Homo sapiens, UniProt P10635); experiment: Inhibition of CYP2D6; type: ADME
[9] = target: Cytochrome P450 3A4 (Homo sapiens, UniProt P08684); experiment: Inhibition of CYP3A4; type: ADME
[10] = Half life in rat at […], iv; type: ADME, organism-based; conditions: in vivo
[11] = Volume of distribution in rat at […], iv; type: ADME, organism-based; conditions: in vivo
[12] = Clearance in rat at […], iv; type: ADME, organism-based; conditions: in vivo
[13] = AUC in rat at 5 mg/kg, po; type: ADME, organism-based; set-up: dose 5 mg/kg, route oral; conditions: plasma
[14] = Cmax in rat at 5 mg/kg, po; type: ADME, organism-based; set-up: dose 5 mg/kg, route oral; conditions: in vivo
[15] = Oral bioavailability in rat at 5 mg/kg; type: ADME, organism-based; conditions: in vivo
[16] = target: T1, Histamine H3 receptor; experiment: Antagonist activity at human histamine H3 receptor assessed as inhibition of [35S]-GTPgammaS binding; type: functional
[17] = target: T1, Histamine H3 receptor; experiment: Inverse agonist activity at human histamine H3 receptor by [35S]-GTPgammaS binding assay; type: functional
[18] = tested on: Rattus norvegicus; experiment: Wake promoting activity in EEG/EMG Sprague-Dawley rat model measured up to 4 hrs post dosing; type: functional, organism-based
[19] = tested on: Rattus norvegicus; experiment: Wake promoting activity in EEG/EMG Sprague-Dawley rat model assessed as wake time at 10 mg/kg, ip measured up to 4 hrs (reference value: 85 +/- 9 mins); type: functional; conditions: route intraperitoneal
[20] = tested on: Rattus norvegicus; experiment: Wake promoting activity in EEG/EMG Sprague-Dawley rat model assessed as wake time at 30 mg/kg, ip measured up to 4 hrs (reference value: 85 +/- 9 mins); type: functional; conditions: route intraperitoneal
[21] = tested on: Rattus norvegicus; experiment: Wake promoting activity in EEG/EMG Sprague-Dawley rat model assessed as cumulative wake time at 30 mg/kg, ip measured after 5 hrs relative to control; type: functional; conditions: route intraperitoneal
[22] = tested on: Rattus norvegicus; experiment: Wake promoting activity in EEG/EMG Sprague-Dawley rat model assessed as sleep rebound at 10 to 30 mg/kg, ip; type: functional, organism-based
[23] = tested on: Rattus norvegicus; experiment: Wake promoting activity in EEG/EMG Sprague-Dawley rat model assessed as maximal cumulative wake surplus time at 10 to 30 mg/kg, ip measured after 9 hrs; type: functional; conditions: dose mg/kg 10-30; route intraperitoneal
[24] = tested on: Rattus norvegicus; experiment: Wake promoting activity in EEG/EMG Sprague-Dawley rat model at 30 mg/kg, ip measured after 3.5 hrs relative to control; type: functional, organism-based; set-up: dose 30 mg/kg
[25] = Half life in mouse liver microsomes; type: ADME, Microsome
[26] = Half life in rat liver microsomes; type: ADME, Microsome
[27] = Half life in dog liver microsomes; type: ADME, Canis lupus familiaris, Microsome
[28] = Half life in human liver microsomes; type: ADME, Microsome
[29] = tested on: Rattus norvegicus; experiment: Inhibition of RAMH-induced dipsogenia in ip dosed rat; type: functional
[30] = Half life in monkey liver microsomes; type: ADME, Macaca mulatta, Microsome; conditions: rhesus monkey
[31] = tested on: Rattus norvegicus; experiment: Wake promoting activity in EEG/EMG Sprague-Dawley rat model at 10 to 30 mg/kg, ip measured after 9 hrs; type: functional, organism-based

T1 sequence (Q9Y5N1 whole entry): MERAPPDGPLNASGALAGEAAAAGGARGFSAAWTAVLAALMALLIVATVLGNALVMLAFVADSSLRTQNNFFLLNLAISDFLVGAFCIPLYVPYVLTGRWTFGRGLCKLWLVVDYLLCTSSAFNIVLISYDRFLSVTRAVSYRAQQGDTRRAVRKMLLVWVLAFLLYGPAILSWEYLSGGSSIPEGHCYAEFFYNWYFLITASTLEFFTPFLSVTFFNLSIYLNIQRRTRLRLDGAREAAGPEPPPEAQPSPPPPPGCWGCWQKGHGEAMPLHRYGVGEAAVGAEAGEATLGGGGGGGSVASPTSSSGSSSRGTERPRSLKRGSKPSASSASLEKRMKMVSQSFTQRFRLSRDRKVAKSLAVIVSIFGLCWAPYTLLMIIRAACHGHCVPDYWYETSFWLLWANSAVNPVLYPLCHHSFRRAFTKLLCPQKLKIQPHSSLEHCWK
Sequence of Histamine H3 receptor (Rattus norvegicus, UniProt Q9QYN8) (Q9QYN8 whole entry): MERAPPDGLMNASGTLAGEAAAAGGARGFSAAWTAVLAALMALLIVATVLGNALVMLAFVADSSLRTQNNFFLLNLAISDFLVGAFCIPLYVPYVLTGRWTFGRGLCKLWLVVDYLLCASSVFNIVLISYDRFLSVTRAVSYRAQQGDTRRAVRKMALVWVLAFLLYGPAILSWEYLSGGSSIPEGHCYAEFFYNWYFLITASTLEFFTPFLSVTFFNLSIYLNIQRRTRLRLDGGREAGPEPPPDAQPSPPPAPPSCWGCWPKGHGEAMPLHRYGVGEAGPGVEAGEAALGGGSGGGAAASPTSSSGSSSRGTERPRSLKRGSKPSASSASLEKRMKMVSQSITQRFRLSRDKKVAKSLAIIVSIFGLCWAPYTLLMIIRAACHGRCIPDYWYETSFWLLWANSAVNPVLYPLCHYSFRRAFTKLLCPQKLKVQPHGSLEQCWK
Sequence of Cytochrome P450 3A4 (P08684 whole entry): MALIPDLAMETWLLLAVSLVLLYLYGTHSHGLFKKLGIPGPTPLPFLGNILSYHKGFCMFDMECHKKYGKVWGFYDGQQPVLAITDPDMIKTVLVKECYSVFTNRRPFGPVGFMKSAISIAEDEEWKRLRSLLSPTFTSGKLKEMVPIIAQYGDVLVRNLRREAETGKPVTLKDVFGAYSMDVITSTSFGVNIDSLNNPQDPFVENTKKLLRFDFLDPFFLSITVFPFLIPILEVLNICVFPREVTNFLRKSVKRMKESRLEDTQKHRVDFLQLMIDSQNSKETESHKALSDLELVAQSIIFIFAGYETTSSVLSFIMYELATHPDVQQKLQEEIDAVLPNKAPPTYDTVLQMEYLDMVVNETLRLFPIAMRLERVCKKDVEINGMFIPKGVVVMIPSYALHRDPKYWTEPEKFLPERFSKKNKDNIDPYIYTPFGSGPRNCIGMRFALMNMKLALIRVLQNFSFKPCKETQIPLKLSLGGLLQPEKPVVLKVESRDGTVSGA
Sequence of Cytochrome P450 2D6 (P10635 whole entry): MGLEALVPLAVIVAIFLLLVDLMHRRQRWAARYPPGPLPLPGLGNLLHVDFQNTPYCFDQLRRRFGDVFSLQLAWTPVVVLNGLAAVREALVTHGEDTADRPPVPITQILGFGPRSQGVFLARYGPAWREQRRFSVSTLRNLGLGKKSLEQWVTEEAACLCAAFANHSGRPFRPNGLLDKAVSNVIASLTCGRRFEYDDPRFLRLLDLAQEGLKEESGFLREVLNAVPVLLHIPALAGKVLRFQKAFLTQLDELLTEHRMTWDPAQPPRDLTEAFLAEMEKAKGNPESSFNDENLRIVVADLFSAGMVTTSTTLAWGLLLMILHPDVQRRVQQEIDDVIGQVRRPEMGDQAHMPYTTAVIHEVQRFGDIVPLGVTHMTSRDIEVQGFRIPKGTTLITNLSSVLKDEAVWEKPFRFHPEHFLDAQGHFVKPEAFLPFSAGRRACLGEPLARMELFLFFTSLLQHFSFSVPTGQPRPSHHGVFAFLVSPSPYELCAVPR
Sequence of Cytochrome P450 2C9 (P11712 whole entry): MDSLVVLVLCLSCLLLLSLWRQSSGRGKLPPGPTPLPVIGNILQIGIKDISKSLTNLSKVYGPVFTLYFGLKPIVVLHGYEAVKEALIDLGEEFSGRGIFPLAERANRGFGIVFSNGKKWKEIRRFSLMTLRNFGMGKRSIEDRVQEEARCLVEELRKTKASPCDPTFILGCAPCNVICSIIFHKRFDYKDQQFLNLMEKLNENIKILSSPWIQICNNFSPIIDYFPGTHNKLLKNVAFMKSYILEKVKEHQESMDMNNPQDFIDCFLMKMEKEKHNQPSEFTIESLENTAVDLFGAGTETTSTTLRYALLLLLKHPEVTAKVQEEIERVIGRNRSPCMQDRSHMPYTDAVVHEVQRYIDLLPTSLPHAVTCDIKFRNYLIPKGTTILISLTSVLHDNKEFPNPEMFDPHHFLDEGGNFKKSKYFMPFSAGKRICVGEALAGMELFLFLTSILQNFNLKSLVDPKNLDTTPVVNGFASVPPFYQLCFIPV
Sequence of Cytochrome P450 2C19 (P33261 whole entry): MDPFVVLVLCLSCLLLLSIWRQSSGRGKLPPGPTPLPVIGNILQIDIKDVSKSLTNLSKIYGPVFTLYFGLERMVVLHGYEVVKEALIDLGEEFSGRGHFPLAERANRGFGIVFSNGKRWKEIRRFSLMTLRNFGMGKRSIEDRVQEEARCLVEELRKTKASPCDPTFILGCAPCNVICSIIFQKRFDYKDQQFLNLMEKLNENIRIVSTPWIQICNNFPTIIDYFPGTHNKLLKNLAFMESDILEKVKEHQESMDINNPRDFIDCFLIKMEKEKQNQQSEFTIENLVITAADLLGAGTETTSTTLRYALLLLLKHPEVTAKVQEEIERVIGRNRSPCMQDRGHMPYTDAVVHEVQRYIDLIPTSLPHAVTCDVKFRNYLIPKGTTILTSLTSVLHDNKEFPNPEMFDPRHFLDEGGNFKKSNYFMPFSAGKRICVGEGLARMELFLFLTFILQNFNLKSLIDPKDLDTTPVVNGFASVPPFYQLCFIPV

Structure (SMILES): C[C@@H]1CCCN1CCCOc1ccc(C(=O)CN2CCC(C#N)CC2)cc1
Ki [1]: 6.3 nM
Ki [2]: 23 nM

Structure (SMILES): C[C@@H]1CCCN1CCCOc1ccc(C(=O)CN2CCN(C(=O)c3cccs3)CC2)cc1
Ki [1]: 4.2 nM
Ki [2]: 9 nM

Structure (SMILES): CC(C)COC(=O)N1CCN(CC(=O)c2ccc(OCCCN3CCC[C@H]3C)cc2)CC1
Ki [1]: 4.6 nM
Ki [2]: 12 nM

Structure (SMILES): C[C@@H]1CCCN1CCCOc1ccc(C(=O)CN2CCC(F)(F)CC2)cc1
inhibition [4]: Active
IC50 [5]: > 30 µM
IC50 [6]: > 30 µM
IC50 [7]: > 30 µM
IC50 [8]: > 30 µM
IC50 [9]: > 30 µM
Ki [1]: 11 nM
Ki [2]: 43 nM
half-life [10]: 30 min
Vd [11]: 2.2 L/kg
clearance [12]: 53 mL/min/kg
AUC [13]: 266 ng·h/mL
Cmax [14]: 66 ng/mL
bioavailability [15]: 15%
Kp at 6 h [3]: 25
Kb [16]: 3.7 nM
EC50 [17]: 1.8 nM
Activity [18]: Dose-dependent effect
Time [19]: 150 min
Time [20]: 195 min
Time [21]: 113 min
Activity [22]: inactive
Time [23]: 46 min
Activity [24]: Active

Structure (SMILES): C[C@@H]1CCCN1CCCOc1ccc(C(=O)CN2CCN(S(C)(=O)=O)CC2)cc1
Ki [1]: 3.4 nM
Ki [2]: 26 nM
Kp at 6 h [3]: < 0.6

Structure (SMILES): COC(=O)N1CCN(CC(=O)c2ccc(OCCCN3CCC[C@H]3C)cc2)CC1
IC50 [5]: > 30 µM
IC50 [6]: > 30 µM
IC50 [7]: > 30 µM
IC50 [8]: > 30 µM
IC50 [9]: > 30 µM
Ki [1]: 3.2 nM
Ki [2]: 19 nM
half-life [25]: > 40 min
half-life [26]: > 40 min
half-life [27]: > 40 min
half-life [28]: > 40 min
half-life [10]: 156 min
Vd [11]: 5.4 L/kg
clearance [12]: 24 mL/min/kg
AUC [13]: 619 ng·h/mL
Cmax [14]: 128 ng/mL
bioavailability [15]: 22%
Kp at 6 h [3]: 4.3
Kb [16]: 0.4 nM
EC50 [17]: 0.9 nM
ED50 [29]: 0.54 mg/kg
inhibition [29]: Dose-dependent effect
half-life [30]: > 40 min
Activity [31]: inactive

The next compounds have a lower Ki [1] than those just listed; values first:

Ki [1]: 2.1 nM
Ki [2]: 17 nM
Structure (SMILES): C[C@@H]1CCCN1CCCOc1ccc(C(=O)CN2CCN(C(=O)C(F)(F)F)CC2)cc1

Ki [1]: 2 nM
Ki [2]: 16 nM
Kp at 6 h [3]: < 0.6
Structure (SMILES): C[C@@H]1CCCN1CCCOc1ccc(C(=O)CN2CCN(C(=O)c3ccco3)CC2)cc1

Ki [1]: 1.2 nM
Ki [2]: 4 nM
Structure (SMILES): C[C@@H]1CCCN1CCCOc1ccc(C(=O)CN2CCN(C(=O)c3cc4ccccc4s3)CC2)cc1

Ki [1]: 0.9 nM
Ki [2]: 9.4 nM
Kp at 6 h [3]: < 0.6
Structure (SMILES): C[C@@H]1CCCN1CCCOc1ccc(C(=O)CN2CCN(C(=O)c3cccn3C)CC2)cc1
